Consider 19 compounds from patent US20250276964A1 (Novartis AG, priority 2021, published 2025).

The target in the assay is T1, WIZ (Homo sapiens, UniProt O95785+Q96SW2).
T1 construct: expressed in transfected cells
In words: Quantification of WIZ protein levels in HiBit tag fusion protein assay (WIZ HiBit assay in 293T cells). Type of assay: cell-based. The conditions noted are these: for Dmax at 25 µM / remaining activity at 25 µM: HEK-293T; for Dmax at 25 µM: 100 minus Amax at 25 uM, read-out: % degradation of WIZ (100-Amax); for remaining activity at 25 µM: DMSO-normalized, curve-fitted percentage of WIZ-HiBit remaining at 25 uM, read-out: WIZ Amax; for DC50: WIZ HiBit assay in 293T cells, 10-point, 5-fold dilution, highest concentration 25 μM, about 18 hours, read-out: WIZ AC50. The procedure:
The HiBit system from Promega was used to develop high-throughput and quantitative assays to measure changes in WIZ protein levels in response to compounds. The HiBit tag was derived from a split Nanoluciferase and has the following protein sequence: […] (SEQ ID NO: 1). The complementary fragment of Nanoluciferase (known as LgBit, from Promega), was added to the HiBit tag to form an active Nanoluciferase enzyme whose activity can be precisely measured. In this way, the levels of a fusion protein with the HiBit tag can be quantified in cell lysates.
Lentiviral vectors, based on the Invitrogen™ pLenti6.2/V5 DEST backbone were constructed that places the HiBit tag upstream of WIZ and expressed the fusion protein from an HSVTK promotor.
To ensure moderate and consistent expression of the HiBit-WIZ fusion protein across all cells in the population, stable cell lines were constructed from cells harboring a single copy of the construct. Lentivirus packaged with the constructs were made using the ViraPower™kit from Invitrogen™. 293T cells from ATCC (Catalog number: CRL-3216), were infected with the virus at low multiplicity of infection and selected by 5 μg/mL blasticidin in culture media for 2 weeks.
The levels of HiBit-WIZ tagged fusion proteins in compound-treated cell lines were measured as follows:
On day 1, cells were diluted to 1.0×10^6 cells/ml in normal growth medium. 20 μL of cell suspension were plated in each well of a solid white 384-well plate. Plates were incubated overnight in a 37° C. and 5% CO2 humidified tissue culture incubator.
On day 2, serial dilutions of compounds were made in 384-well plates. Compound plates were set up with DMSO in columns 1, 2, 23, 24, and 10-point compound dilution series in column 3-12 and column 13-22. 10 mM stock solution of compound were placed into column 3 or 13 and a 1:5 serial dilution was carried out until there was a 10-point dilution series per compound. 50 nL of diluted compounds were transferred into the plated cells by Echo® (Labcyte) acoustic transfer. The highest concentration of compound was 25 μM. Plates were incubated overnight (about 18 hours) in a 37° C. and 5% CO2 humidified tissue culture incubator.
On day 3, plates were removed from the incubator and allowed to equilibrate at room temperature for 60 minutes. HiBit substrate (Nano-Glo® HiBit Lytic Detection System, Promega Catalogue number: N3050) was added as described by the manufacturers protocols. Plates were incubated at room temperature for 30 minutes and luminescence was read using an EnVision® reader (PerkinElmer®). Data was analyzed and visualized using the Spotfire® software package.
WIZ Amax reflects the DMSO-normalized, curve-fitted percentage of WIZ-HiBit remaining at 25 uM. It was calculated by normalizing DMSO controls to 100%, parametric curve fitting of the dose response data (10-point, 5-fold), followed by calculation of response at 25 uM using the fitted equation (nd=not determined).
(In general: With HiBiT, luminescence reflects the tagged protein that the partner subunit can reach.)

T1 sequence (O95785 whole entry): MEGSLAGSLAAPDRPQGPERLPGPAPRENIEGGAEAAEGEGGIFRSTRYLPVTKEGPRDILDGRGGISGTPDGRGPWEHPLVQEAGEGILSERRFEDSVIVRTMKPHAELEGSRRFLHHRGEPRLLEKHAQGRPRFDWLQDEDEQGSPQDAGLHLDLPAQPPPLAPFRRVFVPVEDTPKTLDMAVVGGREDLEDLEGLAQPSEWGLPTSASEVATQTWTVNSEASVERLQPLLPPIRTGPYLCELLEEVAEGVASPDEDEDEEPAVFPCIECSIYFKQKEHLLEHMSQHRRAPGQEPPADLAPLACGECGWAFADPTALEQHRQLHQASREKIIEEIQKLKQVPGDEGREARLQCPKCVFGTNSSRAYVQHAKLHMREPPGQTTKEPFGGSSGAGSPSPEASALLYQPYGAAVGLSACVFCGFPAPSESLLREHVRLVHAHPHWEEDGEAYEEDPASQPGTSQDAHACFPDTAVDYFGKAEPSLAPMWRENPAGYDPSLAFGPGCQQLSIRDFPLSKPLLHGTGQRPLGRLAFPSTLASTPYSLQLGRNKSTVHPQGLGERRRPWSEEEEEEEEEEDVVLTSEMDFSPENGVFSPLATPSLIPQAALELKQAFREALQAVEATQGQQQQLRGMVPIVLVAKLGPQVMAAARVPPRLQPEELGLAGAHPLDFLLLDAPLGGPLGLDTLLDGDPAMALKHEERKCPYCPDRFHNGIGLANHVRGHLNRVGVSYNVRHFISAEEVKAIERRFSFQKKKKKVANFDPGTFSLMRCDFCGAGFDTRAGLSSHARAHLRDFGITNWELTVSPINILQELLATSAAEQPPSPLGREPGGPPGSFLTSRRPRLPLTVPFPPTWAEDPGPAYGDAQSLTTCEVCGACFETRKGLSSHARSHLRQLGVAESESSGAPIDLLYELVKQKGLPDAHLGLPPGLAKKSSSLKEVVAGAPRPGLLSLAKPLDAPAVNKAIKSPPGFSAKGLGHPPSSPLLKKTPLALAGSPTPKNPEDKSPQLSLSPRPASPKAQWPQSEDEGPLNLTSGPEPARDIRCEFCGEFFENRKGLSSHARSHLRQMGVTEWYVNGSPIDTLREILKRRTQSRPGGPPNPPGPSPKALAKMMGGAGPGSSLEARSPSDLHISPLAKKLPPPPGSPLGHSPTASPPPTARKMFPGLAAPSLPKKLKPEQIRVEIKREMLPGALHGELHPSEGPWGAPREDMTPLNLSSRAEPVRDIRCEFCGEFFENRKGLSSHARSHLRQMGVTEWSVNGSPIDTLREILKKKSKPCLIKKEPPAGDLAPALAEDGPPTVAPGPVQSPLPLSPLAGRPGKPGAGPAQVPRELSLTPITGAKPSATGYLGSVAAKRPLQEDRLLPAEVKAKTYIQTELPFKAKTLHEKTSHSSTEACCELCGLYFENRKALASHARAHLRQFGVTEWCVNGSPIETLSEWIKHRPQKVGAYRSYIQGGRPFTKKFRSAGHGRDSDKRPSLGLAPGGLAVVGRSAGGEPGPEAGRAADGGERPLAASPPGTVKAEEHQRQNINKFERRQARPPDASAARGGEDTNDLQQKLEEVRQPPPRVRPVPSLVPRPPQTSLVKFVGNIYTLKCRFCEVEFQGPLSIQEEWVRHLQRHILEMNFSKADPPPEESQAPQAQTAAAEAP
T1 sequence (Q96SW2 whole entry): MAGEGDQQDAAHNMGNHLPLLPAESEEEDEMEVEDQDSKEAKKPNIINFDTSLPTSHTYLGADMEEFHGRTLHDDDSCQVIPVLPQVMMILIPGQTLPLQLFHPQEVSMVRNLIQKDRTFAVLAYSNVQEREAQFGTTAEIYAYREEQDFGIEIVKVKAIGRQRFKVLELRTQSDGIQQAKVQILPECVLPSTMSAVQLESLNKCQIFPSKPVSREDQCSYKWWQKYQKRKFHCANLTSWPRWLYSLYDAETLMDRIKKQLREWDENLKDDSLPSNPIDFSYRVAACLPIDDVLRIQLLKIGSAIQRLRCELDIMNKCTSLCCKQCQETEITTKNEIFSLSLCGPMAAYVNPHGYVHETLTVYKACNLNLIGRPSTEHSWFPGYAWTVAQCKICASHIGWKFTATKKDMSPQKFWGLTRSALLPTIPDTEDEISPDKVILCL
T1 sequence (Q16531 whole entry partner): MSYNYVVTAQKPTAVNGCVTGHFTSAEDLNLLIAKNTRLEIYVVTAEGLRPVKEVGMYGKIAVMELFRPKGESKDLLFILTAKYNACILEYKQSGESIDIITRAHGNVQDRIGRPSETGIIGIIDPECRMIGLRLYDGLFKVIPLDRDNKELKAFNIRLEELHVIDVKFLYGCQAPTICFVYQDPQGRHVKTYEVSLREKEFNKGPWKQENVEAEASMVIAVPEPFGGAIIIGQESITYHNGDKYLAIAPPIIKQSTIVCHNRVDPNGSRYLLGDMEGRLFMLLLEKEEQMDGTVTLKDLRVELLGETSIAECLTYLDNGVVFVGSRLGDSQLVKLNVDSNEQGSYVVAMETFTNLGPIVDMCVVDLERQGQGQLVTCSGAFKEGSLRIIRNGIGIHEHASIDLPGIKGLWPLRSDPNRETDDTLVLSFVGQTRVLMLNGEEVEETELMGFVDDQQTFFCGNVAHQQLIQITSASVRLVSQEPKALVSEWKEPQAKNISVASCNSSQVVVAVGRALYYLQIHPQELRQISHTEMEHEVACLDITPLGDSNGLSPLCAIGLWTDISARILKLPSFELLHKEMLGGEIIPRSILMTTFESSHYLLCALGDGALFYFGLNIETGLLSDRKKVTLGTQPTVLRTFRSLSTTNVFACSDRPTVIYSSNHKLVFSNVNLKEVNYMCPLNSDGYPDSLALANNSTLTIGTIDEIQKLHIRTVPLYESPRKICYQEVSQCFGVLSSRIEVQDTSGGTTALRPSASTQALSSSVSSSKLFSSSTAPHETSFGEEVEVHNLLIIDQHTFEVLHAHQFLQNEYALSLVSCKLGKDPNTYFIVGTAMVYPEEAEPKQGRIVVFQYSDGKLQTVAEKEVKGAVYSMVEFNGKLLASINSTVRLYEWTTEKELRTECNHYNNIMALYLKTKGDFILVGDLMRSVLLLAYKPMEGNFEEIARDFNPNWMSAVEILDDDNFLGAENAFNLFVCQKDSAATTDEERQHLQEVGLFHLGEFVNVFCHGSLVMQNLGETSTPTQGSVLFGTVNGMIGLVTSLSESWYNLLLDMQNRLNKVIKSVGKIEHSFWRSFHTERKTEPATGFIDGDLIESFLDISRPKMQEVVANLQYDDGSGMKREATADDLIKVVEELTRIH

As for `CS(=O)(=O)N1[C@@H]2CC[C@H]1CC(Cc1ccc3onc(N4CCC(=O)NC4=O)c3c1)C2` (stereo partly drawn) [Example 60, 1-(5-(((1R,5S)-8-(methylsulfonyl)-8-azabicyclo[3.2.1]octan-3-yl)methyl)benzo[d]isoxazol-3-yl)dihydropyrimidine-2,4(1H,3H)-dione], the Dmax at 25 µM was determined as 90%, the remaining activity at 25 µM turned out to be 10% and the DC50 was 9 nM.
The matching figures for `O=C1CCN(c2noc3ccc(CN4C[C@H]5CC[C@@H](C4)N5)cc23)C(=O)N1` [Example 100, 1-(5-(((1R,5S)-3,8-diazabicyclo[3.2.1]octan-3-yl)methyl)benzo[d]isoxazol-3-yl)dihydropyrimidine-2,4(1H,3H)-dione]: 76%, 24% and 34 nM.
Consider `O=C1CCN(c2noc3ccc(CC4CCN(CC(F)(F)F)CC4)cc23)C(=O)N1` [Example 13, 1-(5-((1-(2,2,2-trifluoroethyl)piperidin-4-yl)methyl)benzo[d]isoxazol-3-yl)dihydropyrimidine-2,4(1H,3H)-dione], for which the Dmax at 25 µM is 89%, the remaining activity at 25 µM is 11% and the DC50 stood at 39 nM.
For `CCS(=O)(=O)N1CCN(Cc2ccc3onc(N4CCC(=O)NC4=O)c3c2)[C@H](C)C1` [Example 72, (R)-1-(5-((4-(ethylsulfonyl)-2-methylpiperazin-1-yl)methyl)benzo[d]isoxazol-3-yl)dihydropyrimidine-2,4(1H,3H)-dione], the Dmax at 25 µM was determined as 81%, the remaining activity at 25 µM turned out to be 19% and the DC50 was 98 nM.
`O=C1CCN(c2noc3ccc(CC4CCCNCC4)cc23)C(=O)N1` (stereo not drawn) [Example 52, 1-(5-(azepan-4-ylmethyl)benzo[d]isoxazol-3-yl)dihydropyrimidine-2,4(1H,3H)-dione]: the Dmax at 25 µM stood at 86%, the remaining activity at 25 µM stood at 14% and the DC50 came to 57 nM.
Take `C[C@@H]1CN(C2CC2)CCN1Cc1ccc2onc(N3CCC(=O)NC3=O)c2c1` [Example 120, (R)-1-(5-((4-cyclopropyl-2-methylpiperazin-1-yl)methyl)benzo[d]isoxazol-3-yl)dihydropyrimidine-2,4(1H,3H)-dione]: the Dmax at 25 µM came to 83%, the remaining activity at 25 µM turned out to be 17% and the DC50 came to 538 nM.
In the same order, the values of `CN1CCC(Cc2ccc3onc(N4CCC(=O)NC4=O)c3c2)CC1` [Example 10, 1-(5-((1-methylpiperidin-4-yl)methyl)benzo[d]isoxazol-3-yl)dihydropyrimidine-2,4(1H,3H)-dione] are 90%, 10% and 45 nM.
Turning to `CCN1CCN(Cc2ccc3onc(N4CCC(=O)NC4=O)c3c2)CC1` [Example 62, 1-(5-((4-ethylpiperazin-1-yl)methyl)benzo[d]isoxazol-3-yl)dihydropyrimidine-2,4(1H,3H)-dione], the Dmax at 25 µM is 89%, the remaining activity at 25 µM turned out to be 11% and the DC50 came out at 24 nM.
For the compound `CS(=O)(=O)N1C[C@H]2CC[C@@H](C1)N2Cc1ccc2onc(N3CCC(=O)NC3=O)c2c1` [Example 104, 1-(5-(((1R,5S)-3-(methylsulfonyl)-3,8-diazabicyclo[3.2.1]octan-8-yl)methyl)benzo[d]isoxazol-3-yl)dihydropyrimidine-2,4(1H,3H)-dione], the Dmax at 25 µM stood at 85%, the remaining activity at 25 µM stood at 15% and the DC50 turned out to be 181 nM.
The matching figures for `C[C@H]1CN(S(C)(=O)=O)[C@@H](C)CN1Cc1ccc2onc(N3CCC(=O)NC3=O)c2c1` [Example 105, 1-(5-(((2S,5S)-2,5-dimethyl-4-(methylsulfonyl)piperazin-1-yl)methyl)benzo[d]isoxazol-3-yl)dihydropyrimidine-2,4(1H,3H)-dione]: 75%, 25% and 373 nM.
Turning to `CN1C[C@@H]2C[C@H]1CN2Cc1ccc2onc(N3CCC(=O)NC3=O)c2c1` [Example 94], the Dmax at 25 µM worked out at 76%, the remaining activity at 25 µM was determined as 24% and the DC50 is 364 nM.
In the same order, the values of `CC(C)CN1CCN(Cc2ccc3onc(N4CCC(=O)NC4=O)c3c2)[C@H](C(C)C)C1` [Example 90, (R)-1-(5-((4-isobutyl-2-isopropylpiperazin-1-yl)methyl)benzo[d]isoxazol-3-yl)dihydropyrimidine-2,4(1H,3H)-dione] are 85%, 15% and 7 nM.
Take `O=C1CCN(c2noc3ccc(CC4CCN(CC5CCC(F)(F)CC5)CC4)cc23)C(=O)N1` [Example 2, 1-(5-((1-((4,4-difluorocyclohexyl)methyl)piperidin-4-yl)methyl)benzo[d]isoxazol-3-yl)dihydropyrimidine-2,4(1H,3H)-dione]: the Dmax at 25 µM was 92%, the remaining activity at 25 µM is 8% and the DC50 was 1.2 nM.
The matching figures for `C[C@H]1CN(Cc2ccc3onc(N4CCC(=O)NC4=O)c3c2)[C@@H](C)CN1C` [Example 106, 1-(5-(((2S,5S)-2,4,5-trimethylpiperazin-1-yl)methyl)benzo[d]isoxazol-3-yl)dihydropyrimidine-2,4(1H,3H)-dione]: 86%, 14% and 109 nM.
Consider `CC(C)N1CCN(Cc2ccc3onc(N4CCC(=O)NC4=O)c3c2)CC1` [Example 79, 1-(5-((4-isopropylpiperazin-1-yl)methyl)benzo[d]isoxazol-3-yl)dihydropyrimidine-2,4(1H,3H)-dione], for which the Dmax at 25 µM amounted to 92%, the remaining activity at 25 µM worked out at 8% and the DC50 amounted to 16 nM.
Take `O=C1CCN(c2noc3ccc(CN4CCN(CC5CCCCC5)CC4)cc23)C(=O)N1` [Example 21, 1-(5-((4-(cyclohexylmethyl)piperazin-1-yl)methyl)benzo[d]isoxazol-3-yl)dihydropyrimidine-2,4(1H,3H)-dione]: the Dmax at 25 µM stood at 90%, the remaining activity at 25 µM worked out at 10% and the DC50 amounted to 19 nM.
As to `CC(C)(C)OC(=O)N1[C@@H]2CC[C@H]1CN(Cc1ccc3onc(N4CCC(=O)NC4=O)c3c1)C2` [Example 99, tert-butyl (1R,5S)-3-((3-(2,4-dioxotetrahydropyrimidin-1(2H)-yl)benzo[d]isoxazol-5-yl)methyl)-3,8-diazabicyclo[3.2.1]octane-8-carboxylate], the Dmax at 25 µM was 74%, the remaining activity at 25 µM amounted to 26% and the DC50 turned out to be 450 nM.
The matching figures for `CC(C)CN1CCCC(Cc2ccc3onc(N4CCC(=O)NC4=O)c3c2)C1` (stereo not drawn) [Example 46, 1-(5-((1-isobutylpiperidin-3-yl)methyl)benzo[d]isoxazol-3-yl)dihydropyrimidine-2,4(1H,3H)-dione]: 77%, 23% and 197 nM.
In the same order, the values of `CC(C)CN1CCN(Cc2ccc3onc(N4CCC(=O)NC4=O)c3c2)CC1` [Example 24, 1-(5-((4-isobutylpiperazin-1-yl)methyl)benzo[d]isoxazol-3-yl)dihydropyrimidine-2,4(1H,3H)-dione] are 89%, 11% and 37 nM.
